Measurements as given in ChEMBL document CHEMBL1201861, “Genomics of Drug Sensitity in Cancer screening data, Wellcome Trust Sanger Institute”.

How the values were obtained:
Assay in all cases: cells
[1] = test system: SW 1116; type: functional, cell-based, Homo sapiens;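 also: growth inhibition of SW1116 cells, read out with a cell viability assay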
Description: SANGER: Inhibition of human SW1116 cell growth in a cell viability assay.

[2] = test system: COLO-792; type: functional, cell-based, Homo sapiens
Description: SANGER: Inhibition of human COLO-792 cell growth in a cell viability assay.

[3] = test system: T84; type: functional, cell-based, Homo sapiens;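 also: growth inhibition measured with a cell viability readout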
Description: SANGER: Inhibition of human T84 cell growth in a cell viability assay.

[4] = test system: HCC70; type: functional, cell-based, Homo sapiens;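 also: cell viability assay measuring how strongly the compound suppresses proliferation of HCC70 cells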
Description: SANGER: Inhibition of human HCC70 cell growth in a cell viability assay.

[5] = test system: AGS; type: functional, cell-based, Homo sapiens;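 also: growth inhibition of AGS cells, determined with a cell viability assay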
Description: SANGER: Inhibition of human AGS cell growth in a cell viability assay.

[6] = test system: CAL-72; type: functional, cell-based, Homo sapiens;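 also: cell viability assay measuring inhibition of proliferation in the CAL-72 cell line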
Description: SANGER: Inhibition of human CAL-72 cell growth in a cell viability assay.

[7] = test system: UMC-11; type: functional, cell-based, Homo sapiens;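 also: growth inhibition of UMC-11 cells, read out with a cell viability assay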
Description: SANGER: Inhibition of human UMC-11 cell growth in a cell viability assay.

[8] = test system: COR-L23; type: functional, cell-based, Homo sapiens;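 also: cell viability assay measuring how strongly compounds suppress growth of COR-L23 cells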
Description: SANGER: Inhibition of human COR-L23 cell growth in a cell viability assay.

[9] = test system: YAPC; type: functional, cell-based, Homo sapiens;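 also: growth inhibition of YAPC cells, measured with a cell viability assay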
Description: SANGER: Inhibition of human YAPC cell growth in a cell viability assay.

[10] = test system: HEC-1; type: functional, cell-based, Homo sapiens;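 also: growth inhibition of the cell line, read out with a cell viability assay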
Description: SANGER: Inhibition of human HEC-1 cell growth in a cell viability assay.

[11] = test system: NCI-H1755; type: functional, cell-based, Homo sapiens;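 also: cell viability readout used to measure growth inhibition of NCI-H1755 cells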
Description: SANGER: Inhibition of human NCI-H1755 cell growth in a cell viability assay.

[12] = test system: Calu-3; type: functional, cell-based, Homo sapiens;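 also: growth inhibition of human Calu-3 cells, determined with a cell viability assay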
Description: SANGER: Inhibition of human Calu-3 cell growth in a cell viability assay.

[13] = test system: RPMI-2650; type: functional, cell-based, Homo sapiens
Description: SANGER: Inhibition of human RPMI-2650 cell growth in a cell viability assay.

[14] = test system: MEL-JUSO; type: functional, cell-based, Homo sapiens;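 also: growth inhibition of human MEL-JUSO cells, read out with a cell viability assay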
Description: SANGER: Inhibition of human MEL-JUSO cell growth in a cell viability assay.

[15] = test system: A2058; type: functional, cell-based, Homo sapiens;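 also: reduction of A2058 cell growth, read out with a viability assay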
Description: SANGER: Inhibition of human A2058 cell growth in a cell viability assay.

[16] = test system: U2OS; type: functional, cell-based, Homo sapiens, U-2-OS;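 also: growth inhibition of human U-2-OS cells, determined with a cell viability assay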
Description: SANGER: Inhibition of human U-2-OS cell growth in a cell viability assay.

[17] = test system: NCI-H2228; type: functional, cell-based, Homo sapiens;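 also: growth inhibition of human NCI-H2228 cells, read out by a cell viability assay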
Description: SANGER: Inhibition of human NCI-H2228 cell growth in a cell viability assay.

[18] = test system: CAL-39; type: functional, cell-based, Homo sapiens;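 also: cell viability assay measuring growth inhibition of CAL-39 cells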
Description: SANGER: Inhibition of human CAL-39 cell growth in a cell viability assay.

[19] = test system: OE33; type: functional, cell-based, Homo sapiens;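 also: growth inhibition of human OE33 cells, measured by a cell viability assay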
Description: SANGER: Inhibition of human OE33 cell growth in a cell viability assay.

[20] = test system: SW1573; type: functional, cell-based, Homo sapiens;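 also: growth inhibition of SW1573 cells, read out with a cell viability assay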
Description: SANGER: Inhibition of human SW1573 cell growth in a cell viability assay.

[21] = test system: YH-13; type: functional, cell-based, Homo sapiens;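 also: cell viability readout of growth suppression in the human YH-13 cell line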
Description: SANGER: Inhibition of human YH-13 cell growth in a cell viability assay.

[22] = test system: HuCCT-1; type: functional, cell-based, Homo sapiens, HuCCT1;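 also: growth inhibition of HuCCT-1 cells, read out by a cell viability assay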
Description: SANGER: Inhibition of human HuCCT1 cell growth in a cell viability assay.

[23] = test system: NCI-H1693; type: functional, cell-based, Homo sapiens;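 also: growth inhibition of the human cell line, read out with a cell viability assay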
Description: SANGER: Inhibition of human NCI-H1693 cell growth in a cell viability assay.

[24] = test system: U-251; type: functional, cell-based, Homo sapiens;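 also: growth inhibition of human U-251 cells, read out through a cell viability assay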
Description: SANGER: Inhibition of human U251 cell growth in a cell viability assay.

[25] = test system: CHL-1; type: functional, cell-based, Homo sapiens;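 also: cell growth inhibition, read out with a cell viability assay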
Description: SANGER: Inhibition of human CHL-1 cell growth in a cell viability assay.

[26] = test system: BT-20; type: functional, cell-based, Homo sapiens;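 also: cell viability assay measuring suppression of growth in human BT-20 cells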
Description: SANGER: Inhibition of human BT-20 cell growth in a cell viability assay.

[27] = test system: H-EMC-SS; type: functional, cell-based, Homo sapiens
Description: SANGER: Inhibition of human H-EMC-SS cell growth in a cell viability assay.

[28] = test system: NCI-H2342; type: functional, cell-based, Homo sapiens;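 also: growth inhibition of the cancer cell line, determined with a cell viability assay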
Description: SANGER: Inhibition of human NCI-H2342 cell growth in a cell viability assay.

[29] = test system: EGI-1; type: functional, cell-based, Homo sapiens;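 also: cell viability readout used to gauge growth inhibition of EGI-1 cells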
Description: SANGER: Inhibition of human EGI-1 cell growth in a cell viability assay.

[30] = test system: HCT-116; type: functional, cell-based, Homo sapiens
Description: SANGER: Inhibition of human HCT-116 cell growth in a cell viability assay.

[31] = test system: NCI-H460; type: functional, cell-based, Homo sapiens;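 also: cell viability assay scoring growth inhibition of human NCI-H460 cells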
Description: SANGER: Inhibition of human NCI-H460 cell growth in a cell viability assay.

[32] = test system: MHH-ES-1; type: functional, cell-based, Homo sapiens;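 also: cell growth inhibition measured by a cell viability assay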
Description: SANGER: Inhibition of human MHH-ES-1 cell growth in a cell viability assay.

[33] = test system: SK-N-AS; type: functional, cell-based, Homo sapiens;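 also: growth inhibition of human SK-N-AS cells, measured with a cell viability assay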
Description: SANGER: Inhibition of human SK-N-AS cell growth in a cell viability assay.

[34] = test system: PA-1; type: functional, cell-based, Homo sapiens;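 also: IC50 for suppression of PA-1 cell proliferation, determined with a cell viability read-out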
Description: SANGER: Inhibition of human PA-1 cell growth in a cell viability assay.

[35] = test system: SW948; type: functional, cell-based, Homo sapiens;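 also: growth inhibition of SW948 cells, read out with a cell viability assay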
Description: SANGER: Inhibition of human SW948 cell growth in a cell viability assay.

[36] = test system: SW-620; type: functional, cell-based, Homo sapiens;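 also: growth inhibition of human SW-620 cells, measured by a cell viability assay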
Description: SANGER: Inhibition of human SW620 cell growth in a cell viability assay.

Cc1cn(-c2cc(NC(=O)c3ccc(C)c(Nc4nccc(-c5cccnc5)n4)c3)cc(C(F)(F)F)c2)cn1 [NILOTINIB]
IC50 ([1]; Homo sapiens, SW 1116): > 2 µM | IC50 ([2]; Homo sapiens, COLO-792): > 2 µM | IC50 ([3]; Homo sapiens, T84): > 2 µM | IC50 ([4]; Homo sapiens, HCC70): > 2 µM | IC50 ([5]; Homo sapiens, AGS): > 2 µM | IC50 ([6]; Homo sapiens, CAL-72): > 2 µM | IC50 ([7]; Homo sapiens, UMC-11): > 2 µM | IC50 ([8]; Homo sapiens, COR-L23): > 2 µM | IC50 ([9]; Homo sapiens, YAPC): > 2 µM | IC50 ([10]; Homo sapiens, HEC-1): > 2 µM | IC50 ([11]; Homo sapiens, NCI-H1755): > 2 µM | IC50 ([12]; Homo sapiens, Calu-3): > 2 µM | IC50 ([13]; Homo sapiens, RPMI-2650): > 2 µM | IC50 ([14]; Homo sapiens, MEL-JUSO): > 2 µM | IC50 ([15]; Homo sapiens, A2058): > 2 µM | IC50 ([16]; Homo sapiens, U2OS): > 2 µM | IC50 ([17]; Homo sapiens, NCI-H2228): > 2 µM | IC50 ([18]; Homo sapiens, CAL-39): > 2 µM | IC50 ([19]; Homo sapiens, OE33): > 2 µM | IC50 ([20]; Homo sapiens, SW1573): > 2 µM | IC50 ([21]; Homo sapiens, YH-13): > 2 µM | IC50 ([22]; Homo sapiens, HuCCT-1): > 2 µM | IC50 ([23]; Homo sapiens, NCI-H1693): > 2 µM | IC50 ([24]; Homo sapiens, U-251): > 2 µM | IC50 ([25]; Homo sapiens, CHL-1): > 2 µM | IC50 ([26]; Homo sapiens, BT-20): > 2 µM | IC50 ([27]; Homo sapiens, H-EMC-SS): > 2 µM | IC50 ([28]; Homo sapiens, NCI-H2342): > 2 µM | IC50 ([29]; Homo sapiens, EGI-1): > 2 µM | IC50 ([30]; Homo sapiens, HCT-116): > 2 µM | IC50 ([31]; Homo sapiens, NCI-H460): > 2 µM | IC50 ([32]; Homo sapiens, MHH-ES-1): > 2 µM | IC50 ([33]; Homo sapiens, SK-N-AS): > 2 µM | IC50 ([34]; Homo sapiens, PA-1): > 2 µM | IC50 ([35]; Homo sapiens, SW948): > 2 µM | IC50 ([36]; Homo sapiens, SW-620): > 2 µM

CO[C@H]1C[C@@H]2CC[C@@H](C)[C@@](O)(O2)C(=O)C(=O)N2CCCC[C@H]2C(=O)O[C@H]([C@H](C)C[C@@H]2CC[C@@H](OC(=O)C(C)(CO)CO)[C@H](OC)C2)CC(=O)[C@H](C)/C=C(\C)[C@@H](O)[C@@H](OC)C(=O)[C@H](C)C[C@H](C)/C=C/C=C/C=C/1C [TEMSIROLIMUS]
IC50 ([1]; Homo sapiens, SW 1116): > 0.2 µM | IC50 ([2]; Homo sapiens, COLO-792): > 0.2 µM | IC50 ([3]; Homo sapiens, T84): > 0.2 µM | IC50 ([4]; Homo sapiens, HCC70): 0.158 µM | IC50 ([5]; Homo sapiens, AGS): 0.0141 µM | IC50 ([6]; Homo sapiens, CAL-72): > 0.2 µM | IC50 ([7]; Homo sapiens, UMC-11): 0.0894 µM | IC50 ([8]; Homo sapiens, COR-L23): > 0.2 µM | IC50 ([9]; Homo sapiens, YAPC): > 0.2 µM | IC50 ([10]; Homo sapiens, HEC-1): > 0.2 µM | IC50 ([11]; Homo sapiens, NCI-H1755): > 0.2 µM | IC50 ([12]; Homo sapiens, Calu-3): > 0.2 µM | IC50 ([13]; Homo sapiens, RPMI-2650): 0.117 µM | IC50 ([14]; Homo sapiens, MEL-JUSO): 0.0666 µM | IC50 ([15]; Homo sapiens, A2058): 0.0266 µM | IC50 ([16]; Homo sapiens, U2OS): 0.0702 µM | IC50 ([17]; Homo sapiens, NCI-H2228): > 0.2 µM | IC50 ([18]; Homo sapiens, CAL-39): 0.0401 µM | IC50 ([19]; Homo sapiens, OE33): > 0.2 µM | IC50 ([20]; Homo sapiens, SW1573): > 0.2 µM | IC50 ([21]; Homo sapiens, YH-13): 0.0411 µM | IC50 ([22]; Homo sapiens, HuCCT-1): > 0.2 µM | IC50 ([23]; Homo sapiens, NCI-H1693): 0.0922 µM | IC50 ([24]; Homo sapiens, U-251): > 0.2 µM | IC50 ([25]; Homo sapiens, CHL-1): 0.00586 µM | IC50 ([26]; Homo sapiens, BT-20): > 0.2 µM | IC50 ([27]; Homo sapiens, H-EMC-SS): > 0.2 µM | IC50 ([28]; Homo sapiens, NCI-H2342): > 0.2 µM | IC50 ([29]; Homo sapiens, EGI-1): 0.022 µM | IC50 ([30]; Homo sapiens, HCT-116): > 0.2 µM | IC50 ([31]; Homo sapiens, NCI-H460): > 0.2 µM | IC50 ([32]; Homo sapiens, MHH-ES-1): 0.0919 µM | IC50 ([33]; Homo sapiens, SK-N-AS): 0.127 µM | IC50 ([34]; Homo sapiens, PA-1): 0.00147 µM | IC50 ([35]; Homo sapiens, SW948): > 0.2 µM | IC50 ([36]; Homo sapiens, SW-620): 0.106 µM

CS(=O)(=O)c1ccc(C(=O)Nc2ccc(Cl)c(-c3ccccn3)c2)c(Cl)c1 [VISMODEGIB]
IC50 ([1]; Homo sapiens, SW 1116): > 10 µM | IC50 ([2]; Homo sapiens, COLO-792): > 10 µM | IC50 ([3]; Homo sapiens, T84): > 10 µM | IC50 ([4]; Homo sapiens, HCC70): > 10 µM | IC50 ([5]; Homo sapiens, AGS): > 10 µM | IC50 ([6]; Homo sapiens, CAL-72): > 10 µM | IC50 ([7]; Homo sapiens, UMC-11): > 10 µM | IC50 ([8]; Homo sapiens, COR-L23): > 10 µM | IC50 ([9]; Homo sapiens, YAPC): > 10 µM | IC50 ([10]; Homo sapiens, HEC-1): > 10 µM | IC50 ([11]; Homo sapiens, NCI-H1755): > 10 µM | IC50 ([12]; Homo sapiens, Calu-3): > 10 µM | IC50 ([13]; Homo sapiens, RPMI-2650): > 10 µM | IC50 ([14]; Homo sapiens, MEL-JUSO): > 10 µM | IC50 ([15]; Homo sapiens, A2058): > 10 µM | IC50 ([16]; Homo sapiens, U2OS): > 10 µM | IC50 ([17]; Homo sapiens, NCI-H2228): > 10 µM | IC50 ([18]; Homo sapiens, CAL-39): > 10 µM | IC50 ([19]; Homo sapiens, OE33): > 10 µM | IC50 ([20]; Homo sapiens, SW1573): > 10 µM | IC50 ([21]; Homo sapiens, YH-13): > 10 µM | IC50 ([22]; Homo sapiens, HuCCT-1): > 10 µM | IC50 ([23]; Homo sapiens, NCI-H1693): > 10 µM | IC50 ([24]; Homo sapiens, U-251): > 10 µM | IC50 ([25]; Homo sapiens, CHL-1): > 10 µM | IC50 ([26]; Homo sapiens, BT-20): > 10 µM | IC50 ([27]; Homo sapiens, H-EMC-SS): > 10 µM | IC50 ([28]; Homo sapiens, NCI-H2342): > 10 µM | IC50 ([29]; Homo sapiens, EGI-1): > 10 µM | IC50 ([30]; Homo sapiens, HCT-116): > 10 µM | IC50 ([31]; Homo sapiens, NCI-H460): > 10 µM | IC50 ([32]; Homo sapiens, MHH-ES-1): > 10 µM | IC50 ([33]; Homo sapiens, SK-N-AS): > 10 µM | IC50 ([34]; Homo sapiens, PA-1): > 10 µM | IC50 ([35]; Homo sapiens, SW948): > 10 µM | IC50 ([36]; Homo sapiens, SW-620): > 10 µM

CISPLATIN
IC50 ([1]; sw 1116): 158 µM | IC50 ([2]; colo-792): 5.73 µM | IC50 ([3]; t84): 356 µM | IC50 ([4]; hcc70): 9.92 µM | IC50 ([5]; ags): 24.6 µM | IC50 ([6]; cal-72): 23.4 µM | IC50 ([7]; umc-11): 903 µM | IC50 ([8]; cor-l23): 5.63 µM | IC50 ([9]; yapc): 1160 µM | IC50 ([10]; hec-1): 13.3 µM | IC50 ([11]; nci-h1755): 207 µM | IC50 ([12]; calu-3): 582 µM | IC50 ([13]; rpmi-2650): 75.5 µM | IC50 ([14]; mel-juso): 18.8 µM | IC50 ([15]; a2058): 17.5 µM | IC50 ([16]; u-2-os): 13.4 µM | IC50 ([17]; nci-h2228): 8.25 µM | IC50 ([18]; cal-39): 287 µM | IC50 ([19]; oe33): 22.5 µM | IC50 ([20]; sw1573): 43.3 µM | IC50 ([21]; yh-13): 12.1 µM | IC50 ([22]; hucct1): 70.1 µM | IC50 ([23]; nci-h1693): 122 µM | IC50 ([24]; u-251): 11.6 µM | IC50 ([25]; chl-1): 99.2 µM | IC50 ([26]; bt-20): 213 µM | IC50 ([27]; h-emc-ss): 21.2 µM | IC50 ([28]; nci-h2342): 53.8 µM | IC50 ([29]; egi-1): 11.1 µM | IC50 ([30]; hct-116): 8.68 µM | IC50 ([31]; nci-h460): 345 µM | IC50 ([32]; mhh-es-1): 55 µM | IC50 ([33]; sk-n-as): 38 µM | IC50 ([34]; pa-1): 0.79 µM | IC50 ([35]; sw948): 222 µM | IC50 ([36]; sw-620): 160 µM
